Source: patent US8138207B2, “Aminocarbonyl-substituted 8-N-benzimidazoles, methods for their preparation and their use in pharmaceutical compositions” (Sanofi-Aventis, priority 2005, dated 2012)
Counter-ions that a name gives are not always drawn.

Target: T1, DPP-IV from porcine kidneys (Sus scrofa, UniProt P22411)
T1 construct: DPP-IV from porcine kidneys (Sigma, Munich); purchased Sigma, Munich; host or cells: porcine kidney tissue
Test: Measurement of the DPP-IV activity (fluorimetric, H-Ala-Pro-AFC substrate)
Assay type: biochemical
Details: substrate H-Ala-Pro-AFC 15 μM, Tris/HCl pH 7.4, room temperature
Protocol: Measurement of the DPP-IV Activity:
DPP-IV from porcine kidneys (Sigma, Munich)
H-Ala-Pro-AFC (Bachem, Weil am Rhein)
DPP-IV (1 mU/ml, end concentration)
H-Ala-Pro-AFC (15 μm end concentration)
in Tris/HCl (40 mM, pH 7.4), total volume 0.2 ml
The reaction was performed at room temperature for different periods (typically 10 minutes) and stopped at the end of the reaction by adding 20 μl of ZnCl2 (1 M). The conversion of H-Ala-Pro-AFC was determined fluorimetrically by measuring the emission at 535 nm on excitation at 405 nm. In the case of addition of inhibitors, the buffer volume added was adjusted such that a total volume of the test mixture of 200 μl maintained.
% inhibition at a fixed concentration was calculated as follows: (1-enzyme activityinhibited reaction/enzyme activityuninhibited reaction)×100
IC50 values for inhibitors were determined by varying the inhibitor concentrations in the case of the specified substrate concentration of 15 μM. Ki and Km values were determined by corresponding variation of substrate and inhibitor concentration as described (Dixon, M. and Webb, E. C. (1979) Enzymes, third edition, pp. 47-206, Academic Press). The values for Km, IC50 and Ki were calculated using a commercially available software package (Leatherbarrow, R. J. (1992) GraFit Version 3.0, Erithacus Software Ltd. Staines, U.K.).

T1 sequence (P22411 whole entry): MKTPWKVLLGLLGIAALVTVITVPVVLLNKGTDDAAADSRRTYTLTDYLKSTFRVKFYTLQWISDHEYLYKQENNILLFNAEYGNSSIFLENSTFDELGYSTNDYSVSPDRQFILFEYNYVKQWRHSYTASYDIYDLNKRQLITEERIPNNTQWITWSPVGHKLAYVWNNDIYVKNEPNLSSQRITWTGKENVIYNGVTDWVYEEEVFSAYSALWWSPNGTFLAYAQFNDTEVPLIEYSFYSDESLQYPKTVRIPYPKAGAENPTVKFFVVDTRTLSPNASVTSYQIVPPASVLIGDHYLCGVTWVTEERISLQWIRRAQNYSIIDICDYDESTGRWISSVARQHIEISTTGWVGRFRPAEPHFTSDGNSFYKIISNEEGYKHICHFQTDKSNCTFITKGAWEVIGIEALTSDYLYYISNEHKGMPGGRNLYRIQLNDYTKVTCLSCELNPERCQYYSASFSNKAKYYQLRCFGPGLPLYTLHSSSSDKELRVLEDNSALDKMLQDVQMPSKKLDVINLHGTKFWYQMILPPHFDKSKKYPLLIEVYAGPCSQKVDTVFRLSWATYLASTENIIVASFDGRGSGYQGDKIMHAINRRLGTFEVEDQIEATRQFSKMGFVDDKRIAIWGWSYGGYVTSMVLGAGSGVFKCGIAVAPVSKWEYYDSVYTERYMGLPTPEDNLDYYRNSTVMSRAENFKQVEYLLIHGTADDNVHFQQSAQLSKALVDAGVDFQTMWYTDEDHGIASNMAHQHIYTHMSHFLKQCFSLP

Row | IC50 [nM] | SMILES
1 | 2500 | CC(C)=CCn1c(N2CCC[C@@H](N)C2)nc2ccc(NC(=O)c3ccccc3)cc21 [Example 1, R—N-[2-(3-Aminopiperidin-1-yl)-1-(3-methylbut-2-enyl)-1H-benzimidazol-6-yl]-benzamide trifluoroacetic acid salt]
2 | 2700 | CC(C)=CCn1c(N2CCC[C@@H](N)C2)nc2ccc(NC(=O)Cc3ccccc3)cc21 [Example 2]
